Measured values as given in patent US20240358668A1, “METHODS AND CO[…] AM[…] CARD[…] USING (R)-2-AMINO-3-PH[…]” (AXSOME THERAPEUTICS, INC., priority 2021, published 2024).

System: participants with OSA
Assay: Study 14-003, 12-week randomized controlled trial: 24-hour ABPM at screening and week 8
Format: in vivo, human
Conditions: for effect on percentage of participants with a non-dipping BP profile: screening to week 8, any dose studied
Experimental: Solriamfetol is a dopamine and norepinephrine reuptake inhibitor indicated to improve wakefulness in adult patients with excessive daytime sleepiness associated with obstructive sleep apnea (OSA; 37.5-150 mg/d) or narcolepsy (75-150 mg/d). Previous studies reported small mean increases in blood pressure (BP); however, the time course of these effects has not been evaluated. […] These analyses evaluated the effects of solriamfetol treatment on BP using 24-hour ambulatory blood pressure monitoring (ABPM) and on the percentage of OSA patients with a non-dipping BP profile.
Twenty-four-hour ABPM was conducted at baseline and week 8 in a 12-week randomized controlled trial in participants with OSA (n=474). Blood pressure was collected every 30 minutes.

[1] = 37.5 mg, listed as solriamfetol

For `NC(=O)OC[C@H](N)Cc1ccccc1` [Solriamfetol, (R)-2-amino-3-phenylpropyl carbamate], the “Mean Change in DBP on ABPM from Screening to Week 8, Mean (SD)” value (“Mean Change in DBP on ABPM … (SD)” for short) (37.5 mg) was 0.8 (6.09) mmHg, the “Mean Change in HR on ABPM from Screening to Week 8, Mean (SD)” value (from here on “Mean Change in HR on ABPM … (SD)”) (37.5 mg) was 0.7 (5.57) bpm and the “Mean Change in SBP on ABPM from Screening to Week 8, Mean (SD)” value (“Mean Change in SBP on ABPM … (SD)” for short) (37.5 mg) was 0.7 (10.19) mmHg. The “Mean Change in DBP on ABPM … (SD)” value [1] was 0.8 mmHg, the “Mean Change in SBP on ABPM … (SD)” value [1] was 0.7 mmHg and the “Mean Change in DBP on ABPM … (SD)” value (75 mg) was 0.7 (6.55) mmHg. For the same compound, the “Mean Change in HR on ABPM … (SD)” value (75 mg) was 0.4 (7.70) bpm, the “Mean Change in SBP on ABPM … (SD)” value (75 mg) was 2.2 (9.82) mmHg and the “Mean Change in DBP on ABPM … (SD)” value (75 mg, listed as solriamfetol) was 0.7 mmHg. For the same compound, the “Mean Change in SBP on ABPM … (SD)” value (75 mg, listed as solriamfetol) was 2.2 mmHg, the “Mean Change in DBP on ABPM … (SD)” value (150 mg) was −0.2 (5.10) mmHg and the “Mean Change in HR on ABPM … (SD)” value (150 mg) was 1.5 (6.53) bpm. The “Mean Change in SBP on ABPM … (SD)” value (150 mg) was −0.5 (8.64) mmHg, the “Mean Change in DBP on ABPM … (SD)” value (150 mg, listed as solriamfetol) was −0.2 mmHg and the “Mean Change in SBP on ABPM … (SD)” value (150 mg, listed as solriamfetol) was −0.5 mmHg. For the same compound, the “Mean Change in DBP on ABPM … (SD)” value (300 mg) was 2.5 (8.66) mmHg, the “Mean Change in HR on ABPM … (SD)” value (300 mg) was 1.9 (5.56) bpm and the “Mean Change in SBP on ABPM … (SD)” value (300 mg) was 2.9 (13.41) mmHg. For the same compound, the “Mean Change in DBP on ABPM … (SD)” value (300 mg, listed as solriamfetol) was 2.5 mmHg, the “Mean Change in SBP on ABPM … (SD)” value (300 mg, listed as solriamfetol) was 2.9 mmHg and the “percentage of non-dippers (<10% decrease in MAP during sleep)” value (combined solriamfetol, week 8 (baseline 55%)) was 53%. For the same compound, the “time course of effects on BP (24-hour ABPM)” value (highest approved dose of 150 mg/d) was “transient across the day”, the “effect on percentage of participants with a non-dipping BP profile” value was “not observed to have an increase” and the “effect on percentage of participants with a non-dipping BP profile” value (listed as solriamfetol) was “did not increase”.
